{"source": "patent US7790698B2", "about": "“Use of adenosine receptor agonists in therapy” (Cambridge Biotechnology Ltd, priority 2003, dated 2010)", "key": {"[1]": {"test_system": "carrageenan (CGN) induced inflammation", "experiment": "carrageenan induced inflammation, paw volume by plethysomometry (Example 1, FIG. 1)", "assay_type": "in vivo", "method": "Carrageenan (2%, 10 microlitres) was administered into the right hind paw, and the paw volume assessed by plethysomometry. 2-methoxyadenosine was administered at the same time as carrageenan. 2-methoxyadenosine was as effective as indomethacin (Indo, 3 mg/kg p.o.)."}, "[2]": {"test_system": "blood pressure and heart rate", "experiment": "radiotelemetry of blood pressure and heart rate (Example 2, FIG. 2)", "assay_type": "in vivo, rat", "conditions": "0.6 mg/kg p.o., rats", "method": "FIG. 2: An implantable radiotelemetry device was placed in the abdominal cavity of 6 rats per group. The pressure catheter of the device was inserted in the abdominal aorta and two electrodes tunnelised under the skin in a lead II position (left side of abdominal cavity/right shoulder). Individual rats were placed in their own cage on a radioreceptor (DSI) for data acquisition. The effect of 0.6 mg/kg 2-methoxyadenosine or vehicle (p.o.) on blood pressure was then assessed. A: blood pressure; B: heart rate."}, "[3]": {"experiment": "plasma concentration over time after administration (Example 3, FIG. 3)", "assay_type": "in vivo, rat", "method": "The EC50 value of 2-methoxyadenosine at the adenosine A2A receptor is 900 ng/ml (3 μM). […] It can be seen that the plasma concentration remains above 2% of the EC50 value for more than 3 hours. Anti-inflammatory effects have been observed (without blood pressure changes) when the peak and maintained plasma concentrations are as low […] (i.e. 2% of the EC50 value determined in vitro)."}, "[4]": {"test_system": "carageenan-induced oedema in a rat paw", "conditions": "rats, 20 mg/kg po; cited from earlier work"}, "[5]": {"test_system": "mean blood pressure and heart rate", "conditions": "rats, 20 mg/kg po; cited from earlier work"}, "adenosine A2A receptor": {"target": "adenosine A2A receptor", "conditions": "cited from earlier work"}}, "data": [{"compound": "COc1nc(N)c2ncn([C@@H]3O[C@H](CO)[C@@H](O)[C@H]3O)c2n1", "note": "[2-methoxyadenosine]", "values": [{"measurement": "effect on blood pressure", "setting": "[1]; 62.4 and 624 μg/kg i.p.", "result": "without affecting blood pressure"}, {"measurement": "inhibition of carrageenan (CGN) induced inflammation (paw volume)", "setting": "[1]; 62.4 and 624 μg/kg i.p., given at the same time as carrageenan, versus indomethacin 3 mg/kg po", "result": "comparable efficacy to indomethacin"}, {"measurement": "plasma concentration at which profound anti-inflammatory activity is seen", "setting": "[1]; plasma concentration", "result": "≤ 0.2", "unit": "µM"}, {"measurement": "effect on blood pressure", "setting": "[2]", "result": "no significant effect"}, {"measurement": "effect on heart rate", "setting": "[2]", "result": "no significant effect"}, {"measurement": "time the plasma concentration remains above 2% of the EC50 value", "setting": "[3]; 0.6 mg/kg to a rat", "result": "more than 3 hours"}, {"measurement": "peak and maintained plasma concentration at which anti-inflammatory effects were observed without blood pressure changes", "setting": "[3]; as low as, stated as 2% of the EC50 value", "result": 8, "unit": "ng/mL"}, {"measurement": "effect on blood pressure when the peak plasma concentration reaches the EC50 value", "setting": "[3]; peak plasma concentration 900 ng/ml, lasts for many hours", "result": "profound reductions in blood pressure"}, {"measurement": "inhibition of carageenan-induced inflammation", "setting": "[4]", "result": 25, "unit": "%"}, {"measurement": "reduction in heart rate", "setting": "[5]", "result": 25, "unit": "%"}, {"measurement": "reduction in mean blood pressure", "setting": "[5]", "result": 41, "unit": "%"}, {"measurement": "EC50", "setting": "adenosine A2A receptor; Daly et al. 1993", "result": 3000, "unit": "nM"}, {"measurement": "EC50 value at the adenosine A2A receptor", "setting": "adenosine A2A receptor; determined in vitro", "result": 900, "unit": "ng/mL"}]}]}
